From US11530196B2, “Pyrimidine compound acting on EGFR and ERBB2” (CHINA RESOURCES PHARMACEUTICAL HOLDINGS COMPANY LIMITED, priority 2019, dated 2022) come the findings set out here.

Data set [1] is described as follows: Compound stability test in plasma (rat). It is filed as in vitro ADME, SD rat. The procedure: In this study, mouse, SD rat, Beagle, cynomolgus monkey and human plasma were used as materials to investigate the stability of the tested compounds in the plasma of the above five species. Propantheline, Enalapril, Bisacodyl and Procaine were used as control compounds.
The experimental conditions for the test compounds were as follows: • test concentration: 2 μM (DMSO ≤0.5%); • incubation times: 0, 10, 30, 60 and 120 minutes; • frozen plasma (from multiple species) was used in the test system; • incubation conditions: 37° C.
The mixed frozen plasma was thawed in a 37° C. water bath prior to the experiment. Plasma was centrifuged at 4000 rpm for 5 minutes and cleared if there was a clot. The pH will be adjusted to 7.4±0.1 if required.
The intermediate solution of 1 mM compound and positive control was prepared by diluting 10 mM stock solution with 90 μL of dimethyl sulfoxide. 100 μM solution was prepared by diluting 20 μL of intermediate solution (1 mM) with 180 μL of 45% methanol/water.
2 μL of 100 μM solution was added to 98 μL of blank plasma to achieve a final concentration of 2 μM (in duplicate) of the sample, and the sample was incubated in a 37° C. water bath. At each time point (0, 10, 30, 60 and 120 min), 400 μL of termination solution (200 ng/mL toluenesulfonylurea and 200 ng/mL labetalol, 50% ACN/MeOH) was added to precipitate the proteins and mixed thoroughly. […]

For data set [2], the target named is EGFR exon 20 insertion (D770_N771insNPG) enzyme (Homo sapiens, UniProt P00533, INS770NPG). As to the kind of experiment: Kinase assay (HTRF KinEASE TK), EGFR exon 20 insertion. It is filed as biochemical. An excerpt:
To detect the inhibitory effect of compounds on EGFR WT, EGFR (D770_N771insNPG), ERBB2 (V777_G778ins>CG), EGFR T790M/L858R enzyme activities
EGFR WT (Invitrogen, Cat. No. PR7295B), EGFR [L858R] (Invitrogen, Cat. No. PR7447A), EGFR [d746-750] (Invitrogen, Cat. No. PV6179), ATP (Sigma, Cat. No. A7699-1G), DMSO (Sigma, Cat. No. D2650), DTT (Sigma, Cat. No. 43815), 384-well plate, compound dilution plate (Greiner, Cat. No. 781280), 384-well plate, test plate (Perkin Elmer, Cat. No. 6007299), HTRF KinEASE TK Kit (Cisbio, Cat. No. 62TK0PEB), magnesium chloride (Sigma, Cat. No. M1028), Orthovanadate (Sigma, Cat. No. 56508), BSA (Sigma, Cat. No. A7030), HEPES (Life technology, Cat. No. 11344-041).
The final test concentrations of the test compounds ranged from 10 μM to 0.17 nM in 3-fold gradient dilutions at 11 concentrations.
The preparation of the buffer, 50 mM HEPES (pH 7.5), 0.01% BSA, 5 mM MgCl2, and 0.1 mM Orthovanadate were contained in the buffer. After the preparation of the buffer, the enzyme and substrate were mixed with pre-diluted prepared compounds of different concentrations, and the mixture was placed at room temperature for 15 minutes. […] After the reaction was completed, the antibody was added to the assay, incubated at room temperature for 60 minutes and then detected by Envision (plate reading instrument), and data were collected. […]
For orientation: In TR-FRET formats the signal depends on donor and acceptor labels being close together.

Data set [3] concerns A431 (EGFR wild type) cells. As to the kind of experiment: Anti-proliferation activity test against A431 cells. It is filed as cell-based. To be noted: Homo sapiens, A-431; A431, Cell-Titer Glo, 72 hours. The procedure: (2) Anti-Proliferation Activity Test of the Compound Against H1975 Cells and IC50 Test of Anti-Proliferation Activity Against A431 Cells
RPMI1640 medium, FBS fetal bovine serum, trypsin-EDTA, were all purchased from Giboco. DPBS was purchased from Corning, penicillin/streptomycin solution was purchased from Hyclone, and Cell-Titer Glo reagent was purchased from Promega (1kit, Cat. No. G7571). Plate reading instrument: Envision (PerkinElmer).
384-well plates in columns 1, 2, and 24 were added with 45 μL of medium, and the cell suspension was dispensed with Multi-drop at 45 μL per well (1000 cells) and incubated overnight in an incubator. The compound was added to the source plate according to the Echo dispensing requirements, the compound in the source plate was added to the inter plate and diluted to an intermediate concentration, then the compound in the source plate and the inter plate was added to the cell plate, and the cells were continued to be incubated in a incubator for 72 hours. After 72 hours, Cell-Titer Glo reagent and cells were removed and equilibrated at room temperature for 30 min. 25 μL of Cell-Titer Glo reagent was dispensed into 384-well plates with Multi-drop, the cell plate was vibrated at medium speed for 3 min, centrifuged at 1000 rpm for 2 min, and stood for 10 min. The plate was read by Envision (Luminescence). […]

The structures appear in SMILES notation. “And” between values parts separate entries of the source, which are not always exact repeats. Equal values may be shown once. A value given as a limit tells only on which side of the number the result lay.

Chain of EGFR exon 20 insertion (D770_N771insNPG) enzyme (P00533 with tags, fused parts or gaps INS770NPG limits assumed): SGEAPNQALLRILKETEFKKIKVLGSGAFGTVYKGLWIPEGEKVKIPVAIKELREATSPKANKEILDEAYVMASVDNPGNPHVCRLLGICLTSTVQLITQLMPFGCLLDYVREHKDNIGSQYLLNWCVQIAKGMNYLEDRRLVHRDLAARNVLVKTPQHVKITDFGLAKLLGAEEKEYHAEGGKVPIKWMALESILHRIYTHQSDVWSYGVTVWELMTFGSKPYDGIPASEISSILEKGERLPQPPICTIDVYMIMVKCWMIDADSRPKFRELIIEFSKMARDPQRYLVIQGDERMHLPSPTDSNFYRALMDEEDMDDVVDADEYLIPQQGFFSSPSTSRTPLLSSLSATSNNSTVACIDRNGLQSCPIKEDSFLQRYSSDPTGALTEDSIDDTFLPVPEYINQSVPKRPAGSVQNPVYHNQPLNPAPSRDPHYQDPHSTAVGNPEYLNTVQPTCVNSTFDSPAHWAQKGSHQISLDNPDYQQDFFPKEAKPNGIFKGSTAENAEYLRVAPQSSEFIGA

Turning to `C=CC(=O)Nc1cc(Nc2ncc(C(=O)OC(C)C)c(-c3cn(OC)c4ccccc34)n2)c(OC)cc1N(C)CCN(C)C.CS(=O)(=O)O` [Compound 1], the “In vitro plasma stability (Residual percentage)” value in data set [1] (120 minutes, 2 μM, 37° C.) is 87.9%. For the same compound, the half-life at 2 µM in data set [1] (Sprague-Dawley (SD), pH 7.4, 37° C., read-out: In vitro plasma half-life T1/2) is over 4.82 h. The IC50 in data set [2] is 800 pM and 700 pM; in data set [3] it was 335000 pM.

A word on the IC50: it is the point on the concentration scale where inhibition reaches its midpoint.
